According to US7259173B2, “Derivatives of 3-phenyl-n-(2-(4-benzyl)-piperidin-1-yl)-ethyl)-acrylamid with ccr-3-receptor antagonistic activity for use in the treatment of inflammations and allergic conditions” (Novartis AG, priority 2001, dated 2007):

Biological target: T1, human CCR-3 (Homo sapiens, UniProt P51677)
T1 construct: expressed in transfected cells; host or cells: rat basophil leukemia (RBL-2H3) cells, membranes
T1 sequence (P51677 1-355): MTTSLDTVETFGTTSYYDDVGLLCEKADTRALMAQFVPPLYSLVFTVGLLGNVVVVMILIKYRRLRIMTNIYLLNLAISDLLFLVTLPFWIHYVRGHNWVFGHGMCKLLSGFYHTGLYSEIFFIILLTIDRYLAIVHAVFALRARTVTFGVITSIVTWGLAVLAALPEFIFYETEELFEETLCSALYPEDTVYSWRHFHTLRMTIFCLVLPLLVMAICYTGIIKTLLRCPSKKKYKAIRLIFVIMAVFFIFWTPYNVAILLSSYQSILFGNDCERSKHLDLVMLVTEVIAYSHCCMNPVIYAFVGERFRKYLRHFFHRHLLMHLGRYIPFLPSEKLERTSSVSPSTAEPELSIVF
Assay: CCR-3 Binding Assay ([125I]-human eotaxin SPA)
Conditions: inhibition of [125I]-human eotaxin binding to human CCR-3, membranes of RBL-2H3 cells expressing CCR3
Procedure: In this assay the effect of agents of the invention on the binding of human eotaxin to human CCR-3 is determined. Recombinant cells expressing human CCR-3 are captured by wheatgerm agglutinin (WGA) polyvinyltoluidene (PVT) SPA beads (available from Amersham), through a specific interaction between the WGA and carbohydrate residues of glycoproteins on the surface of the cells. [^125I]-human eotaxin (available from Amersham) binds specifically to CCR-3 receptors bringing the [^125I]-human eotaxin in close proximity to the SPA beads. Emitted â-particles from the [^125I]-human eotaxin excite, by its proximity, the fluorophore in the beads and produce light.
Preparation of Assay Buffer: 5.96 g HEPES and 7.0 g sodium chloride are dissolved in distilled water and 1M aqueous CaCl2 (1 mL) and 1M aqueous MgCl2 (5 mL) are added. The pH is adjusted to 7.6 with NaOH and the solution made to a final volume of 1 L using distilled water. 5 g bovine serum albumin and 0.1 g sodium azide are then dissolved in the solution and the resulting buffer stored at 4° C. A Complete™ protease inhibitor cocktail tablet (available from Boehringer) is added per 50 mL of the buffer on the day of use.
Preparation of Homogenisation Buffer: Tris-base (2.42 g) is dissolved in distilled water, the pH of the solution is adjusted to 7.6 with hydrochloric acid and the solution is diluted with distilled water to a final volume of 1 L. The resulting buffer is stored at 4° C. A Complete™ protease inhibitor cocktail tablet is added per 50 mL of the buffer on the day of use.
Preparation of membranes: Confluent rat basophil leukemia (RBL-2H3) cells stably expressing CCR3 are removed from tissue culture flasks using enzyme-free cell dissociation buffer and resuspended in phosphate-buffered saline. […]
The assay is performed in a final volume of 250 μL per well of an Optiplate (ex Canberra Packard). […] The resulting scintillations are counted using a Canberra Packard TopCount, each well being counted for 1 minute. […]

SMILES | IC50 [nM]
COc1ccc(C#N)cc1/C=C/C(=O)N[C@H](CO)CN1CCC(Cc2ccc(Cl)cc2)CC1 [Example 2, (E)-3-(5-Cyano-2-methoxy-phenyl)-N-{(S)-2-[4-(4-chloro-benzyl)-piperidin-1-yl]-1-hydroxymethyl-ethyl}-acrylamide] | 6
COc1ccc(Br)cc1/C=C/C(=O)NCCN1CCC(Cc2ccc(F)cc2)CC1 [Example 3, (E)-3-(5-Bromo-2-methoxy-phenyl)-N-{2-[4-(4-fluoro-benzyl)-piperidin-1-yl]-ethyl}-acrylamide] | 34.7
COc1ccc(C#N)cc1/C=C/C(=O)N[C@H](CO)CN1CCC(Cc2ccc(F)cc2)CC1 [Example 4, (E)-3-(5-Cyano-2-methoxy-phenyl)-N-{(S)-2-[4-(4-fluoro-benzyl)-piperidin-1-yl]-1-hydroxymethyl-ethyl}-acrylaniide] | 6
